In patent publication US12319659B2, “Selective ligand for dopamine D3 receptor, preparation method therefor, and pharmaceutical application thereof” (Shenzhen Linglan Bio-Pharmaceutical Technology Co., Ltd, priority 2017, dated 2025):
Structures can show the parent of a compound that is named as a salt. Where two headings read alike, the source gives them in different places. Each block holds one molecule with its values, some of them ahead of it.

Experiments:
dopamine D2 receptor = target: T1, dopamine D2 receptor (Homo sapiens, UniProt P14416); test: Competitive inhibition test using radioligands ([3H]-sulpiride), D2 receptor; format: binding; conditions: for D2 Receptor Displacement (%) / inhibition: [3H]-sulpiride; for inhibition: read-out: D2 Receptor Displacement (%); for Ki: [3H]-sulpiride competition, HEK-293 cells, read-out: KiD2R
T1 construct: expressed in transfected cells; host or cells: Human embryonic kidney-293 cells
T1 sequence (P14416 whole entry): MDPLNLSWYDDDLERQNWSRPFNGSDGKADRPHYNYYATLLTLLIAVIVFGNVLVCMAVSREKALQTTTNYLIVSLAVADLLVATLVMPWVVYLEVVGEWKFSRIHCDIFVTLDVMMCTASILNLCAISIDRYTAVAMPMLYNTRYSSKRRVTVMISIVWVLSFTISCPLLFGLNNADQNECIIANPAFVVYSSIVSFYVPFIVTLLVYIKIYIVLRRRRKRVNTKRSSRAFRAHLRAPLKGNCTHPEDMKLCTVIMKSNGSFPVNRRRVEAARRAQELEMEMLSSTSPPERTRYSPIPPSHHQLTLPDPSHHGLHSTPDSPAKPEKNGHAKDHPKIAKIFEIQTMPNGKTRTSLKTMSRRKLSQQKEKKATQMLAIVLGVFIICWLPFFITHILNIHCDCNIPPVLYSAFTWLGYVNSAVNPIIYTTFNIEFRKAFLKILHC
Method: (§2) Human embryonic kidney-293 cells were cultured in fresh MEM medium containing 10% fetal bovine serum, 100 units of penicillin, and 100 μg/mL streptomycin at 37° C. under 5% CO2. Cells were transfected with DNA plasmids of dopamine D2 and D3 receptors respectively by using polyethylenimine. After transfection for 4 hours, medium was replaced with fresh MEM medium containing fetal bovine serum and the cells were further cultured for 24 hours. The cells were seeded into 24-well plates and cultured for 14-16 hours or overnight. After the medium was discarded, the cells were rinsed with pre-cooled serum-free MEM. Radioligand ([^3H]-sulpiride) and various concentrations of compounds were added into the adherent cells, and incubated in a bath at 4° C. for 150 minutes. The cells were rinsed three times with pre-cooled MEM containing 10 mM HEPES to remove unbound ligands. After the medium was completely removed, the cells were lysed with 1% sodium lauryl sulfate. The remaining radioligands were detected with a liquid scintillation counter to calculate the relative amount of bound compounds.

[1] = Solubility assay in water; format: physicochemical
Description: (§1) Solubility Assay of the D3 Receptor-Selective Ligand

[2] = Solubility assay in anhydrous ethanol; format: physicochemical; conditions: organic solvent or mixture
Description: as §1

dopamine D3 receptor [3] = target: T2, dopamine D3 receptor (Homo sapiens, UniProt P35462); test: cell-based
T2 sequence (P35462 whole entry): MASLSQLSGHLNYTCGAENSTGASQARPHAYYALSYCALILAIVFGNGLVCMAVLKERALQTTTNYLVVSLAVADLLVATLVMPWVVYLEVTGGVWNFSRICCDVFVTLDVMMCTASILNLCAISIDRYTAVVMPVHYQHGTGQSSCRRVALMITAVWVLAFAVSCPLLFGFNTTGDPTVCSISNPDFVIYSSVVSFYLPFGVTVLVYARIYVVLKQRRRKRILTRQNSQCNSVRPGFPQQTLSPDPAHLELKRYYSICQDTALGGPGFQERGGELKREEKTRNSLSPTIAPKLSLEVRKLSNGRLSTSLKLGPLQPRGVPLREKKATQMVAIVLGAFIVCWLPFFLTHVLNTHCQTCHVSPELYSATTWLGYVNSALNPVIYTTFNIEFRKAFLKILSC
Method: as §2

[4] = tested on: 6-OHDA-induced Parkinson's disease rats; test: Rotarod assay in 6-hydroxydopamine-induced Parkinson's disease rats; format: in vivo, Sprague Dawley (SD) rats
Method: Experimental Sprague Dawley (SD) rats were randomly divided into an experimental group and a control group. After repeated behavior detection confirmed that there was no rotational behavior, the experiment was performed. Experimental group: rats were anesthetized with a mixture of xylazine (15 mg/kg, i.p.) and ketamine (100 mg/kg, i.p.), and then desipramine hydrochloride (25 mg/kg, s.c.) were used to protect noradrenergic neurons. 6 μg of 6-hydroxydopamine was dissolved in 2.3 μL of 0.9% sterile saline, and injected into the cerebral substantia nigra (antero-posterior −5.4 mm, […] from the bregma which was used as a zero coordinate) at a rate of 0.5 μL/min by using cerebral stereotaxic surgery. Rats in the control group were injected with the same dose of 0.9% sterile saline. After injection, the syringe needle was left in rats for 5 minutes before the needle was slowly withdrawn. After the rats awakened, they were placed in animal facilities for behavioral model evaluation to ensure that 6-hydroxydopamine induced the formation of a model with movement disorders and emotional/motivational disorders. Because hunger is prone to occur as a result of dopamine damage of the midbrain substantia nigra, 20% of rats were given high-calorie food for 1-2 weeks. After 19 days, the D3 receptor-selective ligand was continuously injected intraperitoneally for 3 days. Rats were allowed to accommodate the rotarod on days 19-20, and a rotarod assay was performed on days 21-22.

dopamine D3 receptor [5] = target: T2, dopamine D3 receptor
Method: as §2

[6] = arylpiperazine-phthalimide compounds at 100 nM, HEK-293 cells (Table 1)
[7] = arylpiperazine-arylurea compounds at 100 nM, HEK-293 cells (Table 2)

SMILES: O=C1c2ccccc2C(=O)N1CCCCN1CCN(c2ccc(Cl)cc2Cl)CC1 [3k•HCl, 2-(4-(4-(2,4-dichlorophenyl)piperazin-1-yl)butyl)isoindoline-1,3-dione]
- inhibition (dopamine D2 receptor; [6]): 30.2 ± 3.4%

SMILES: O=C1c2ccccc2C(=O)N1CCCCN1CCN(c2cccc(C(F)(F)F)c2)CC1 [3p•HCl, 2-(4-(4-(3-(trifluoromethyl)phenyl)piperazin-1-yl)butyl)isoindoline-1,3-dione]
- D2 Receptor Displacement (%) (dopamine D2 receptor; [6]): 37.9 ± 2.8%

SMILES: O=C(NCCCCN1CCN(c2cc(C(F)(F)F)ccc2F)CC1)Nc1cnc2ccccc2c1 [8n•HCl, 1-(4-(4-(2-fluoro-5-(trifluoromethyl)phenyl)piperazin-1-yl)butyl)-3-(quinolin-3-yl)urea]
- D2 Receptor Displacement (%) (dopamine D2 receptor; [7]): 10.7 ± 4.0%

SMILES: O=C(NCCCCN1CCN(c2cccc(C(F)(F)F)c2)CC1)Nc1cnc2ccccc2c1 [8p•HCl, 1-(4-(4-(3-(trifluoromethyl)phenyl)piperazin-1-yl)butyl)-3-(quinolin-3-yl)urea]
- D2 Receptor Displacement (%) (dopamine D2 receptor; [7]): 84.1 ± 1.8%

SMILES: O=C(NCCCCN1CCN(c2cccc(Cl)c2Cl)CC1)c1cc2ccccc2[nH]1 [31j•HCl, N-(4-(4-(2,3-dichlorophenyl)piperazin-1-yl)butyl)-1H-indole-2-carboxamide, reference compound]
- Ki (dopamine D3 receptor [5]): 15.6 nM

SMILES: O=C(NCCCCN1CCN(c2ccc(Cl)cc2Cl)CC1)c1cc2ccccc2[nH]1 [31k•HCl, N-(4-(4-(2,4-dichlorophenyl)piperazin-1-yl)butyl)-1H-indole-2-carboxamide, reference compound]
- Ki (dopamine D2 receptor): > 23900 nM

SMILES: O=C1c2ccccc2C(=O)N1CCCCN1CCN(c2ccccc2F)CC1 [Compound 3a, 2-(4-(4-(2-fluorophenyl)piperazin-1-yl)butyl)isoindoline-1,3-dione]
- inhibition (dopamine D2 receptor; [6]): 31.8 ± 3.3%

SMILES: O=C1c2ccccc2C(=O)N1CCCCN1CCN(c2ccc(F)cc2)CC1 [Compound 3c, 2-(4-(4-(4-fluorophenyl)piperazin-1-yl)butyl)isoindoline-1,3-dione]
- inhibition (dopamine D2 receptor; [6]): -6.3 ± 4%

SMILES: O=C1c2ccccc2C(=O)N1CCCCN1CCN(c2cccc(F)c2F)CC1 [Compound 3d, 2-(4-(4-(2,3-fluorophenyl)piperazin-1-yl)butyl)isoindoline-1,3-dione]
- Ki (dopamine D2 receptor): 2160 nM
- D2 Receptor Displacement (%) (dopamine D2 receptor; [6]): 17.7 ± 3.7%
- Ki (dopamine D3 receptor [5]): 19.3 nM

SMILES: O=C1c2ccccc2C(=O)N1CCCCN1CCN(c2ccc(F)cc2F)CC1 [Compound 3e, 2-(4-(4-(2,4-fluorophenyl)piperazin-1-yl)butyl)isoindoline-1,3-dione]
- D2 Receptor Displacement (%) (dopamine D2 receptor; [6]): 4.8 ± 6.5%

SMILES: O=C1c2ccccc2C(=O)N1CCCCN1CCN(c2c(F)cccc2F)CC1 [Compound 3f, 2-(4-(4-(2,6-fluorophenyl)piperazin-1-yl)butyl)isoindoline-1,3-dione]
- D2 Receptor Displacement (%) (dopamine D2 receptor; [6]): 10.3 ± 6.1%

SMILES: O=C1c2ccccc2C(=O)N1CCCCN1CCN(c2ccccc2Cl)CC1 [Compound 3g, 2-(4-(4-(2-chlorophenyl)piperazin-1-yl)butyl)isoindoline-1,3-dione]
- inhibition (dopamine D2 receptor; [6]): 28.7 ± 3.3%

SMILES: O=C1c2ccccc2C(=O)N1CCCCN1CCN(c2cccc(Cl)c2)CC1 [Compound 3h, 2-(4-(4-(3-chlorophenyl)piperazin-1-yl)butyl)isoindoline-1,3-dione]
- inhibition (dopamine D2 receptor; [6]): 64.8 ± 3.5%

SMILES: O=C1c2ccccc2C(=O)N1CCCCN1CCN(c2cccc(Cl)c2Cl)CC1 [Compound 3j, 2-(4-(4-(2,3-dichlorophenyl)piperazin-1-yl)butyl)isoindoline-1,3-dione]
- inhibition (dopamine D2 receptor; [6]): 70.3 ± 2.7%

SMILES: O=C1c2ccccc2C(=O)N1CCCCN1CCN(c2ccc(Cl)cc2F)CC1 [Compound 3m, 2-(4-(4-(4-chloro-2-fluorophenyl)piperazin-1-yl)butyl)isoindoline-1,3-dione]
- inhibition (dopamine D2 receptor; [6]): 2.8 ± 12%

SMILES: O=C1c2ccccc2C(=O)N1CCCCN1CCN(c2cc(C(F)(F)F)ccc2F)CC1 [Compound 3n, 2-(4-(4-(2-fluoro-5-(trifluoromethyl)phenyl)piperazin-1-yl)butyl)isoindoline-1,3-dione]
- inhibition (dopamine D2 receptor; [6]): -4.7 ± 7.8%

SMILES: O=C1c2ccccc2C(=O)N1CCCCN1CCN(c2cccc(C(F)(F)F)c2)CC1 [Compound 3p, 2-(4-(4-(3-(trifluoromethyl)phenyl)piperazin-1-yl)butyl)isoindoline-1,3-dione]
- inhibition (dopamine D2 receptor; [6]): 44 ± 1.6%

SMILES: O=C(NCCCCN1CCN(c2cc(C(F)(F)F)ccc2F)CC1)Nc1cnc2ccccc2c1 [Compound 8n, 1-(4-(4-(2-fluoro-5-(trifluoromethyl)phenyl)piperazin-1-yl)butyl)-3-(quinolin-3-yl)urea]
- D2 Receptor Displacement (%) (dopamine D2 receptor; [7]): 24.9 ± 1.8%

SMILES: O=C(NCCCCN1CCN(c2cccc(Cl)c2Cl)CC1)c1cc2ccccc2[nH]1 [Compound 31j, N-(4-(4-(2,3-dichlorophenyl)piperazin-1-yl)butyl)-1H-indole-2-carboxamide, reference compound]
- Ki (dopamine D3 receptor [3]): 6210 nM

SMILES: CCN1CCCC1CNC(=O)c1cc(S(N)(=O)=O)ccc1OC (stereo not drawn) [sulpiride, reference compound]
- inhibition (dopamine D2 receptor; [6]): 92.2 ± 0.1%

Continued, in another order:

- D2 Receptor Displacement (%) (dopamine D2 receptor; [6]): 16.3 ± 4.2%
SMILES: O=C1c2ccccc2C(=O)N1CCCCN1CCN(c2ccc(Cl)cc2)CC1 [3i•HCl, 2-(4-(4-(4-chlorophenyl)piperazin-1-yl)butyl)isoindoline-1,3-dione]

- inhibition (dopamine D2 receptor; [7]): 13.4 ± 8.5%
SMILES: O=C(NCCCCN1CCN(c2ccc(Cl)cc2)CC1)Nc1ccc2ccccc2n1 [7i•HCl, 1-(4-(4-(4-chlorophenyl)piperazin-1-yl)butyl)-3-(quinolin-2-yl)urea]

- solubility ([2]; 8.53 mg/mL): < 8530 µg/mL
- solubility ([2]; 25.6 mg/mL): < 8530 µg/mL
- Ki (dopamine D3 receptor [3]): 14.3 nM
- Ki (dopamine D2 receptor): 53100 nM
- D2 Receptor Displacement (%) (dopamine D2 receptor; [7]): 15.2 ± 1.6%
SMILES: O=C(NCCCCN1CCN(c2ccc(Cl)cc2)CC1)Nc1cnc2ccccc2c1 [8i•HCl, 1-(4-(4-(4-chlorophenyl)piperazin-1-yl)butyl)-3-(quinolin-3-yl)urea]
- Solubility in water ([1]; 1 mg/mL): + (+ indicates that the compound was completely dissolved)
- Solubility in water ([1]; 3 mg/mL): + (+ indicates that the compound was completely dissolved)
- Solubility in water ([1]; 6 mg/mL): + (+ indicates that the compound was completely dissolved)
- Solubility in water ([1]; 12 mg/mL): + (+ indicates that the compound was completely dissolved)
- effect compared with apomorphine (positive control drug) ([4]; 6-hydroxydopamine rats): comparable to the effect of apomorphine
- motor dysfunction induced by 6-hydroxydopamine ([4]; intraperitoneal for 3 days): significantly improved

- inhibition (dopamine D2 receptor; [7]): 4.8 ± 4.3%
SMILES: O=C(NCCCCN1CCN(c2cccc(Cl)c2Cl)CC1)Nc1cnc2ccccc2c1 [8j•HCl, 1-(4-(4-(2,3-dichlorophenyl)piperazin-1-yl)butyl)-3-(quinolin-3-yl)urea]

- D2 Receptor Displacement (%) (dopamine D2 receptor; [7]): 33.4 ± 5.9%
SMILES: O=C(NCCCCN1CCN(c2ccc(Cl)cc2)CC1)Nc1nc2ccccc2s1 [21i•HCl, 1-(benzothiazol-2-yl)-3-(4-(4-(4-chlorophenyl)piperazin-1-yl)butyl)urea]

- D2 Receptor Displacement (%) (dopamine D2 receptor; [7]): 52.1 ± 2.0%
SMILES: O=C(NCCCCN1CCN(c2cccc(Cl)c2Cl)CC1)Nc1nc2ccccc2s1 [21j•HCl, 1-(benzothiazol-2-yl)-3-(4-(4-(2,3-dichlorophenyl)piperazin-1-yl)butyl)urea]

- D2 Receptor Displacement (%) (dopamine D2 receptor; [7]): 19.0 ± 1.4%
SMILES: O=C(NCCCCN1CCN(c2ccc(Cl)cc2Cl)CC1)Nc1nc2ccccc2s1 [21k•HCl, 1-(benzothiazol-2-yl)-3-(4-(4-(2,4-dichlorophenyl)piperazin-1-yl)butyl)urea]

- D2 Receptor Displacement (%) (dopamine D2 receptor; [6]): 59.2 ± 18.3%
SMILES: O=C1c2ccccc2C(=O)N1CCCCN1CCN(c2ccc(Cl)cc2)CC1 [Compound 3i, 2-(4-(4-(4-chlorophenyl)piperazin-1-yl)butyl)isoindoline-1,3-dione]

- D2 Receptor Displacement (%) (dopamine D2 receptor; [7]): −6.7 ± 4.2%
SMILES: O=C(NCCCCN1CCN(c2cccc(C(F)(F)F)c2)CC1)Nc1cnc2ccccc2c1 [Compound 8p, 1-(4-(4-(3-(trifluoromethyl)phenyl)piperazin-1-yl)butyl)-3-(quinolin-3-yl)urea]

- inhibition (dopamine D2 receptor; [7]): -14.7 ± 1.8%
SMILES: O=C(NCCCCN1CCN(c2ccc(Cl)cc2)CC1)Nc1cc2ccccc2cn1 [Compound 11i, 1-(4-(4-(4-chlorophenyl)piperazin-1-yl)butyl)-3-(isoquinolin-3-yl)urea]

- inhibition (dopamine D2 receptor; [7]): 36.8 ± 6.5%
SMILES: O=C(NCCCCN1CCN(c2ccc(Cl)cc2)CC1)Nc1nc2ccccc2s1 [Compound 21i, 1-(benzothiazol-2-yl)-3-(4-(4-(4-chlorophenyl)piperazin-1-yl)butyl)urea]

- inhibition (dopamine D2 receptor; [7]): 35.5 ± 3.4%
SMILES: O=C(NCCCCN1CCN(c2cccc(Cl)c2Cl)CC1)Nc1nc2ccccc2s1 [Compound 21j, 1-(benzothiazol-2-yl)-3-(4-(4-(2,3-dichlorophenyl)piperazin-1-yl)butyl)urea]

- D2 Receptor Displacement (%) (dopamine D2 receptor; [7]): 40.8 ± 5.6%
SMILES: O=C(NCCCCN1CCN(c2ccc(Cl)cc2Cl)CC1)Nc1nc2ccccc2s1 [Compound 21k, 1-(benzothiazol-2-yl)-3-(4-(4-(2,4-dichlorophenyl)piperazin-1-yl)butyl)urea]
